# According to PubChem BioAssay (NCI):
#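 GI50 = concentration required for 50% inhibition of growth. TGI denotes the concentration required for complete inhibition of growth.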
# Columns and labels:
# Assay in all cases: inhibition of tumour cell growth, NCI panel, 384-well format
# 786-0 renal = tested on: 786-0 renal
# A498 renal = tested on: A498 renal
# A549 NSCLC = tested on: A549 NSCLC
# ACHN renal = tested on: ACHN renal
# BT-549 breast = tested on: BT-549 breast
# CAKI-1 renal = tested on: CAKI-1 renal
# CCRF-CEM leukemia = tested on: CCRF-CEM leukemia
# COLO 205 colon = tested on: COLO 205 colon
# DU-145 prostate = tested on: DU-145 prostate
# EKVX NSCLC = tested on: EKVX NSCLC
# HCC-2998 colon = tested on: HCC-2998 colon
# HCT-116 colon = tested on: HCT-116 colon
# HCT-15 colon = tested on: HCT-15 colon
# HL-60(TB) leukemia = tested on: HL-60(TB) leukemia
# HOP-62 NSCLC = tested on: HOP-62 NSCLC
# HOP-92 NSCLC = tested on: HOP-92 NSCLC
# HS 578T breast = tested on: HS 578T breast
# HT29 colon = tested on: HT29 colon
# IGROV1 ovarian = tested on: IGROV1 ovarian
# K-562 leukemia = tested on: K-562 leukemia
# KM12 colon = tested on: KM12 colon
# LOX IMVI melanoma = tested on: LOX IMVI melanoma
# M14 melanoma = tested on: M14 melanoma
# MALME-3M melanoma = tested on: MALME-3M melanoma
# MCF7 breast = tested on: MCF7 breast
# MDA-MB-231 breast = tested on: MDA-MB-231 breast
# MDA-MB-435 melanoma = tested on: MDA-MB-435 melanoma
# MDA-MB-468 breast = tested on: MDA-MB-468 breast
# MOLT-4 leukemia = tested on: MOLT-4 leukemia
# NCI-H226 lung = tested on: NCI-H226 lung
# NCI-H23 lung = tested on: NCI-H23 lung
# NCI-H322M lung = tested on: NCI-H322M lung
# NCI-H460 NSCLC = tested on: NCI-H460 NSCLC
# NCI-H522 lung = tested on: NCI-H522 lung
# NCI/ADR-RES ovarian = tested on: NCI/ADR-RES ovarian
# OVCAR-3 ovarian = tested on: OVCAR-3 ovarian
# OVCAR-4 ovarian = tested on: OVCAR-4 ovarian
# OVCAR-5 ovarian = tested on: OVCAR-5 ovarian
# OVCAR-8 ovarian = tested on: OVCAR-8 ovarian
# PC-3 prostate = tested on: PC-3 prostate
# RPMI-8226 leukemia = tested on: RPMI-8226 leukemia
# RXF 393 renal = tested on: RXF 393 renal
# SF-268 CNS = tested on: SF-268 CNS
# SF-295 CNS = tested on: SF-295 CNS
# SF-539 CNS = tested on: SF-539 CNS
# SK-MEL-28 melanoma = tested on: SK-MEL-28 melanoma
# SK-MEL-5 melanoma = tested on: SK-MEL-5 melanoma
# SK-OV-3 ovarian = tested on: SK-OV-3 ovarian
# SN12C renal = tested on: SN12C renal
# SNB-19 CNS = tested on: SNB-19 CNS
# SNB-75 CNS = tested on: SNB-75 CNS
# SW-620 colon = tested on: SW-620 colon
# T-47D breast = tested on: T-47D breast
# TK-10 renal = tested on: TK-10 renal
# U251 glioblastoma = tested on: U251 glioblastoma
# UACC-257 melanoma = tested on: UACC-257 melanoma
# UACC-62 melanoma = tested on: UACC-62 melanoma
# UO-31 renal = tested on: UO-31 renal
smiles,measurement,setting,value
COc1c(Nc2ncc(Cl)c(N[C@@H]3[C@H]4C=CC(C4)[C@@H]3C(N)=O)n2)ccc2c1CC[C@@H](N1CCOCC1)CC2,GI50,786-0 renal,1480 nM
same,TGI,786-0 renal,2940 nM
same,GI50,A498 renal,1950 nM
same,TGI,A498 renal,10600 nM
same,GI50,A549 NSCLC,1270 nM
same,TGI,A549 NSCLC,5570 nM
same,GI50,ACHN renal,2160 nM
same,TGI,ACHN renal,9250 nM
same,GI50,BT-549 breast,1620 nM
same,TGI,BT-549 breast,3160 nM
same,GI50,CAKI-1 renal,1350 nM
same,TGI,CAKI-1 renal,2780 nM
same,GI50,CCRF-CEM leukemia,1510 nM
same,TGI,CCRF-CEM leukemia,3030 nM
same,GI50,COLO 205 colon,1110 nM
same,TGI,COLO 205 colon,2690 nM
same,GI50,DU-145 prostate,2880 nM
same,TGI,DU-145 prostate,12300 nM
same,GI50,EKVX NSCLC,1500 nM
same,TGI,EKVX NSCLC,4530 nM
same,GI50,HCC-2998 colon,1240 nM
same,TGI,HCC-2998 colon,3090 nM
same,GI50,HCT-116 colon,1270 nM
same,TGI,HCT-116 colon,2620 nM
same,GI50,HCT-15 colon,2150 nM
same,TGI,HCT-15 colon,10100 nM
same,GI50,HL-60(TB) leukemia,1550 nM
same,TGI,HL-60(TB) leukemia,3010 nM
same,GI50,HOP-62 NSCLC,1700 nM
same,TGI,HOP-62 NSCLC,5360 nM
same,GI50,HOP-92 NSCLC,1300 nM
same,TGI,HOP-92 NSCLC,3260 nM
same,GI50,HS 578T breast,1560 nM
same,TGI,HS 578T breast,2970 nM
same,GI50,HT29 colon,1240 nM
same,TGI,HT29 colon,2580 nM
same,GI50,IGROV1 ovarian,1400 nM
same,TGI,IGROV1 ovarian,9590 nM
same,GI50,K-562 leukemia,1780 nM
same,TGI,K-562 leukemia,3680 nM
same,GI50,KM12 colon,1680 nM
same,TGI,KM12 colon,10400 nM
same,GI50,LOX IMVI melanoma,1330 nM
same,TGI,LOX IMVI melanoma,2680 nM
same,GI50,M14 melanoma,817 nM
same,TGI,M14 melanoma,2570 nM
same,GI50,MALME-3M melanoma,866 nM
same,TGI,MALME-3M melanoma,2660 nM
same,GI50,MCF7 breast,1750 nM
same,TGI,MCF7 breast,11900 nM
same,GI50,MDA-MB-231 breast,1540 nM
same,TGI,MDA-MB-231 breast,6140 nM
same,GI50,MDA-MB-435 melanoma,1700 nM
same,TGI,MDA-MB-435 melanoma,8330 nM
same,GI50,MDA-MB-468 breast,1280 nM
same,TGI,MDA-MB-468 breast,2990 nM
same,GI50,MOLT-4 leukemia,311 nM
same,TGI,MOLT-4 leukemia,1430 nM
same,GI50,NCI-H226 lung,676 nM
same,TGI,NCI-H226 lung,4670 nM
same,GI50,NCI-H23 lung,1680 nM
same,TGI,NCI-H23 lung,5940 nM
same,GI50,NCI-H322M lung,2750 nM
same,TGI,NCI-H322M lung,11500 nM
same,GI50,NCI-H460 NSCLC,1960 nM
same,TGI,NCI-H460 NSCLC,5260 nM
same,GI50,NCI-H522 lung,1440 nM
same,TGI,NCI-H522 lung,3700 nM
same,GI50,NCI/ADR-RES ovarian,1970 nM
same,TGI,NCI/ADR-RES ovarian,4660 nM
same,GI50,OVCAR-3 ovarian,3110 nM
same,TGI,OVCAR-3 ovarian,11800 nM
same,GI50,OVCAR-4 ovarian,7050 nM
same,TGI,OVCAR-4 ovarian,19600 nM
same,GI50,OVCAR-5 ovarian,1350 nM
same,TGI,OVCAR-5 ovarian,4580 nM
same,GI50,OVCAR-8 ovarian,2700 nM
same,TGI,OVCAR-8 ovarian,9480 nM
same,GI50,PC-3 prostate,2270 nM
same,TGI,PC-3 prostate,8980 nM
same,GI50,RPMI-8226 leukemia,1210 nM
same,TGI,RPMI-8226 leukemia,3000 nM
same,GI50,RXF 393 renal,1580 nM
same,TGI,RXF 393 renal,3170 nM
same,GI50,SF-268 CNS,206 nM
same,TGI,SF-268 CNS,2500 nM
same,GI50,SF-295 CNS,1950 nM
same,TGI,SF-295 CNS,10300 nM
same,GI50,SF-539 CNS,1250 nM
same,TGI,SF-539 CNS,2570 nM
same,GI50,SK-MEL-28 melanoma,1540 nM
same,TGI,SK-MEL-28 melanoma,5220 nM
same,GI50,SK-MEL-5 melanoma,1370 nM
same,TGI,SK-MEL-5 melanoma,6790 nM
same,GI50,SK-OV-3 ovarian,1780 nM
same,TGI,SK-OV-3 ovarian,7550 nM
same,GI50,SN12C renal,1190 nM
same,TGI,SN12C renal,5330 nM
same,GI50,SNB-19 CNS,5100 nM
same,TGI,SNB-19 CNS,17400 nM
same,GI50,SNB-75 CNS,1290 nM
same,TGI,SNB-75 CNS,2770 nM
same,GI50,SW-620 colon,1660 nM
same,TGI,SW-620 colon,3250 nM
same,GI50,T-47D breast,1940 nM
same,TGI,T-47D breast,5310 nM
same,GI50,TK-10 renal,2290 nM
same,TGI,TK-10 renal,7860 nM
same,GI50,U251 glioblastoma,1760 nM
same,TGI,U251 glioblastoma,6500 nM
same,GI50,UACC-257 melanoma,1510 nM
same,TGI,UACC-257 melanoma,3530 nM
same,GI50,UACC-62 melanoma,688 nM
same,TGI,UACC-62 melanoma,2920 nM
same,GI50,UO-31 renal,1560 nM
same,TGI,UO-31 renal,4900 nM
